Test results published in patent US20210290839A1, “SYSTEMS AND METHODS FOR DETECTING AND TREATING BACTERIAL BIOFILMS” (UNIVERSITY OF MARYLAND, COLLEGE PARK, priority 2017, published 2021).
Entries after “also recorded” stand apart in the source; their conditions may differ.

Columns and labels:
Format in all cases: cell-based
[1] = test system: Escherichia coli (K12 W3110) biofilm; test: Real-time impedance sensing of biofilm during 24-hour treatment period (FIG. 6A); conditions: BE: gentamicin 10 μg/ml plus sensing, AC 50 mV at 100 Hz, 30 s of every 150 s; 24-hour treatment of 24-hour biofilm; increase corresponds to removal of biofilm
Procedure: (§1) In particular, each experiment employed a flow system including a growth media reservoir, waste reservoir, and the detecting device connected using polymer tubing and luer connectors in between the reservoirs. Fluid was pumped through the flow system by a peristaltic pump. The detecting device and tubing were placed in an incubator maintained at 37° C., to mimic the temperature found in an inserted catheter. Escherichia coli (K12 W3110) were cultured in incubator at 37° C. and then diluted to an OD600 of 0.25. 1 ml of the diluted E. coli solution was then introduced into the catheter tube directly via syringe. The bacteria were allowed to attach to the interior surface under static (no flow) conditions for 2 hours (referred to as the Seeding phase). […] Throughout the Growth phase, the system impedance (Z) is measured by the detecting device every 2 minutes, with the relative change being used to monitor biofilm formation. […]
As noted above, the sensing voltage applied to the electrodes of the detecting device 300 can also synergistically enhances any antimicrobial agent present to deliver a bioelectric effect. FIG. 6A illustrates the measured impedance characteristics in experiments employing a detecting device fabricated according to the structure of FIGS. 3A-3B and employing a benchtop potentiostat as the voltage source. […]

[2] = test system: Escherichia coli (K12 W3110) biofilm; test: Crystal violet absorbance assay biomass quantification (FIG. 6B); conditions: 24-hour treatment
Procedure: as §1, with “syringe.” for “syringe. The bacteria were allowed to attach to the interior surface under static (no flow) conditions for 2 hours (referred to as the Seeding phase).”
CV absorbance staining was used to quantify the end-point biomass and to validate the impedance measurements of FIG. 6A. […] Optical absorbance at a wavelength (λ) of 590 nm was then measured, with increases corresponding to increased biomass. One-way analysis of variance (ANOVA) was used to determine statistical significance of the biomass quantification results.
FIG. 6B illustrates the results of the CV absorbance assay for various treatment conditions in experiments employing a detecting device fabricated according to the structure of FIGS. 3A-3B and employing a benchtop potentiostat as the voltage source.

bacterial biofilm [3] = test: Real-time fractional relative change of impedance during treatment with threshold-triggered 100 mV signal (FIG. 7); conditions: 24 hour treatment
Procedure: FIG. 7 illustrates the fractional relative change of impedance measurements in experiments similar to that of FIG. 6B. In particular, treatment is performed by applying a 100 mV signal across the same electrodes used for impedance detection, in combination with near MIC levels of antibiotic, thereby generating a second bioelectric effect. This bioelectric effect was applied at regular intervals for only ˜1/7 of the total 24 hour treatment period.
The “E-field” curve represents an experiment where an intervallic 100 mV AC electrical signal (e.g., at 1 MHz) in addition to the periodic 5 mV AC detection voltage was applied to the electrodes, but without any antibiotic present. The “BE” curve represents an experiment where an intervallic 100 mV AC electrical signal (e.g., at 1 MHz) in addition to the periodic 5 mV AC detection voltage was applied to the electrodes, and with 10 μg/mL of gentamicin present. The decision to apply the 100 mV AC signal in both experiments was made by logic using the impedance data gathered in the sensing mode (i.e., using the 5 mV AC detection voltage). If the average sensing mode data point was less than a predefined threshold, then the larger 100 mV electric field treatment was applied; otherwise, the system continued in sensing mode with the periodic application of the 5 mV AC detection voltage. […]

bacterial biofilm [4] = test: End-point confocal microscopy quantification of bacterial biofilm thickness (FIG. 8); conditions: Combination: 100 μM autoinducer-2 analog isobutyl DPD plus 0.125V AC at 10 MHz offset by 0.125V DC, compared with either alone
Source text: FIG. 8 is a bar graph showing the results of end-point confocal microscopy quantification of bacterial biofilm thickness for different treatment conditions, including combined electrical measuring and quorum sensing inhibitors (e.g., autoinducer-2 analog).
Although the preceding paragraphs address the bioelectric effect based on antibiotics, similar results can be obtained with other antimicrobial agents, such as quorum sensing inhibitors. In particular, FIG. 8 illustrates the results of experiments for different treatment conditions using autoinducer-2 analog. “LB control” represents an experiment where no electric field or autoinducer-2 analog was present. “E-field only” represents an experiment where an electrical signal of 0.125V AC at 10 MHz offset by 0.125V DC was applied to electrodes, without any autoinducer-2 analog present. “AI-2 analog” represents an experiment where autoinducer-2 analog is introduced (e.g., 100 μM autoinducer-2 analog isobutyl DPD) without any electrical signal applied to the electrodes. “Combination” represents an experiment where the electrical signal is applied to the electrodes and autoinducer-2 analog is introduced.

Molecule | impedance change during the treatment period [1] [%] | end-point biofilm biomass (CV absorbance at 590 nm) ([2]; Anti-only: antibiotic without impedance sensing) | end-point biofilm biomass (CV absorbance at 590 nm) ([2]; BE: sensing + antibiotic (gentamicin 10 μg/ml)) | change in 100 Hz impedance at the end of treatment phase (bacterial biofilm [3]; "Antibiotic": 10 μg/mL gentamicin with periodic 5 mV AC detection voltage) | change in 100 Hz impedance at the end of treatment phase (bacterial biofilm [3]; "BE": 10 μg/mL gentamicin with intervallic 100 mV AC (1 MHz) plus periodic 5 mV AC detection voltage) | reduction of biofilm thickness (bacterial biofilm [4])
gentamicin | ~20 | significantly higher biomass of biofilm | biomass similar to a bacteria-free control | increase in 100 Hz impedance; also recorded: as effective in treating the biofilm | increase in 100 Hz impedance | –
CC(C)CC(=O)C(=O)C(O)CO (stereo not drawn) [autoinducer-2 analog, isobutyl DPD] | – | – | – | – | – | substantially improved efficacy in reducing biofilm thickness over either alone
